Data from patent US20120190707A1, “SELECTIVE INHIBITORS OF AKT AND METHODS OF USING SAME” (priority 2008, published 2012).

What was measured:
JNK = test: Activity of other protein kinases: JNK; type: biochemical; settings: 100 micro.M
Source text: We recently reported on the direct evaluation of a number of in silico approaches to identify AKT inhibitors (Forino et al., 2005) We achieved experimental validation of selected compounds using both a fluorescence-based enzymatic assay and a substrate phosphorylation assay involving the protein GSK-3 (Forino et al., 2005). Briefly, the virtual docking approach consists of selecting the top 4,000 out of 50,000 docked compounds, using a variety of computational docking approaches, including a consensus score among two different scoring functions (Forino et al., 2005). Of those, 100 compounds were selected based on ranking and favorable docking geometry.

AKT = AKT expression by western blot in MCF7 breast cancer cells; type: cell-based; settings: MCF7, 5 and 10 micro.M
Description: (A) MeWo melanoma cells growing in 60 mm plates were treated with the indicated concentration of the inhibitor for 4 h before proteins were prepared for western blot analysis using the indicated antibodies. Level of beta.actin was monitored as a control for protein loading. (B) Experiment was performed as indicated in panel A, except that cells were harvested after 24 h for analysis of cell death using trypan blue staining. (C) Melanoma (MeWo), prostate cancer (PC3) and breast cancer (MCF7) cells were treated with BI-69A11 at the indicated concentrations; levels of AKT phosphorylation or expression were assessed 4 h later. The level of beta.actin used as a control for protein loading. (D) Experiment was performed as indicated in panel C, except that cells were harvested after 4 h for analysis of cell death using trypan blue staining.
For western blotting techniques, cells were lysed in RIPA buffer containing 50 mM TrisHCl pH7.4, 150 mM NaCl, 2 mM EDTA, 1% NP-40, 0.1% SDS. The protein concentration was estimated using the Coomassie Protein assay kit (Thermo Scientific, Rockford, Ill., USA). Equal concentrations of cell lysate (30-50 ug) were resolved on a 10% polyacrylamide gel and transferred onto Nitrocellulose membrane (GE Amersham). Membranes were blocked for 1-2 hours in either 3% BSA or 5% nonfat dried milk in Tris-buffered saline containing 0.05% Tween 20. […]

melanocytes = test: AKT phosphorylation and toxicity in cultured melanocytes; type: cell-based; settings: data not shown
PRAS40 = PRAS40 phosphorylation by western analysis in UACC903 cells; type: cell-based, human; settings: UACC903, 10.micro.M
Description: (§1) FIG. 6 describes the effect of BI-69A11 on phosphorylation and total levels of AKT in UACC 903 (PTEN−) cells. (A) UACC903 and the modified clone 29-1 (PTEN+) cells were exposed to 10 micro.M BI-69A11 and 50 micro.M LY294002 (a PI3K inhibitor) and the levels of pAKT473 and total AKT determined by western analysis. […] (SF=Serum Free). (B) BI-69A11 inhibits PRAS40 phosphorylation. UACC903 melanoma cells or 29-1 cells (PTEN+) were subjected to treatment with IGF-1 (20 ng/mL) and the level of PRAS40 phosphorylation was assessed. […] The cells were collected, lysed and levels of pPRAS40 and total PRAS40 determined by western analysis. (C) AKT association with HSP90 is inhibited by BI-69A11. Human melanoma cells were treated with BI-69A11 (10.micro.M) or DMSO control for 4 h, followed by protein preparation and immunoprecipitation using antibodies to pan-AKT. MG132 treatment, when used, initiated 1 h prior to treatment and lasted up to the preparation of proteins (total of 5 h). The right panel depicts analysis of total lysates.
Thus, we set to test the possibility that BI-69A11's ability to inhibit AKT activity may stem from inhibition of AKT protein expression (see data below). We thus assessed whether inhibition of AKT Ser473 phosphorylation coincides with its activity, namely the phosphorylation of known AKT substrates. […]

[1] = tested on: AKT association with HSP90; test: AKT association with HSP90, immunoprecipitation from melanoma cells; type: cell-based, human; settings: 10.micro.M, 4 h
Description: as §1
Among cellular proteins implicated in the regulation of AKT levels is the cellular chaperone HSP90. […] Thus we assessed whether association of AKT with HSP90 could be affected by BI-69A11. […]

O=C(/C=C/c1nc2ccccc2[nH]1)c1c(O)nc2ccc(Cl)cc2c1-c1ccccc1 [Compound 2, (E)-3-(3-(1H-benzo[d]imidazol-2-yl)acryloyl)-6-chloro-4-phenylquinolin-2(1H)-one]
effect on JNK activity (JNK): did not affect
AKT protein levels (AKT): not affected
AKT phosphorylation in growth factor-maintained melanocytes (melanocytes; coincided with cell death): efficient inhibition of AKT phosphorylation
toxic effect on melanocytes deprived of growth factors (melanocytes; deprived for 24 h): no longer elicit toxic effect
phosphorylation of PRAS40 (PRAS40): markedly inhibited
AKT association with HSP90 [1]: abolished
